IC50 and inhibition data for 26 molecules are collected here from patent publication US7718652B2, “Substituted benzothiadiazinedioxide derivatives and methods of their use” (Wyeth LLC, priority 2006, dated 2010).

For the test, the target named is T1, human hNET (Homo sapiens, UniProt P23975).
T1 construct: expressed in transfected cells; host or cells: MDCK-Net6 (MDCK cells stably transfected)
Kind of test: Functional Norepinephrine (NE) Uptake Assay in MDCK-Net6 cells. The format is cell-based. The conditions noted are these: for IC50: MDCK-Net6 cells stably transfected with human hNET, 3H norepinephrine 16 nM; for inhibition at 10 µM: MDCK-Net6 cells, printed in the IC50 column where 50% inhibition was not exceeded, read-out: hNET Uptake, % inhibition at highest concentration tested. As to the method:
MDCK-Net6 cells, stably transfected with human hNET (Pacholczyk, T., R. D. Blakely, and S. G. Amara, Nature, 1991, 350(6316): p. 350-4) were cultured in growth medium containing high glucose DMEM (Gibco, Cat. No. 11995), 10% FBS (dialyzed, heat-inactivated, US Bio-Technologies, Lot FBD1129HI) and 500 μg/ml G418 (Gibco, Cat. No. 10131). Cells were plated at 300,000 T75 flask and cells were split twice weekly.
Functional Norepinephrine (NE) Uptake Assay
On day 1, cells were plated at 3,000 cells/well in growth medium and maintained in a cell incubator (37° C., 5% CO2). On day 2, growth medium was replaced with 200 μl of assay buffer (25 mM HEPES; 120 mM NaCl; 5 mM KCl; 2.5 mM CaCl2; 1.2 mM MgSO4; 2 mg/ml glucose (pH 7.4, 37° C.)) containing 0.2 mg/ml ascorbic acid and 1 μM pargyline. For screening, 25 μl of compound in 4% […] was added directly to each well and the plate is incubated for 5 minutes at 37° C.
To initiate the norepinephrine reuptake, 16 nM (final concentration) of ^3H norepinephrine (specific activity; 40-80 Ci/mmol) in assay buffer was delivered in 25 μl aliquots to each well, and the plates were incubated for 5 minutes at 37° C. The reaction was aspirated from the plate and the cells washed with 250 μl of 50 mM Tris Buffer (4° C.). The plates were left to dry for 1 hour. The cells were lysed using 0.25 M NaOH solution then placed on a shake table and vigorously shaken for 10 minutes. After cell lysis, 100 μl of Microscint 20 (PerkinElmer; #87-051101) were added to the plates and the plates were sealed with film tape and replaced on the shake table for a minimum of 10 minutes. The plates were counted in a TopCount counter (PerkinElmer).
For screening single point determinations, each compound plate contains at least 3 control wells (maximum NE reuptake determinant) and 3 non-specific wells determined by adding 20 μM of desipramine (minimum NE reuptake determinant). Determination of active compounds are calculated using a Microsoft Excel spread sheet applying the following formula: % inhibition=[1−((mean cpm test compound wells−mean cpm non-specific wells)/(mean cpm control wells−mean cpm non-specific wells))]×100
For IC50 determination, raw cpm values were generated in a data file from the TopCount counter. The data was organized in Microsoft Excel and transferred into PRIZM graphing and statistical program, which calculates the estimated IC50 value. Calculation of IC50 values were made using non-linear regression analysis with a sigmoidal dose response with variable slope. The statistical program used wells containing ^3H norepinephrine only as the maximal NE reuptake determinant and wells containing ^3H norepinephrine plus 20 μM desipramine as the minimal NE reuptake determinant (non-specific determinant). Estimation of the IC50 value was completed on a log scale and the line was fit between the maximal and minimal NE reuptake values.

Where a name gives a salt, the structure may show the parent alone.

T1 sequence (P23975 whole entry): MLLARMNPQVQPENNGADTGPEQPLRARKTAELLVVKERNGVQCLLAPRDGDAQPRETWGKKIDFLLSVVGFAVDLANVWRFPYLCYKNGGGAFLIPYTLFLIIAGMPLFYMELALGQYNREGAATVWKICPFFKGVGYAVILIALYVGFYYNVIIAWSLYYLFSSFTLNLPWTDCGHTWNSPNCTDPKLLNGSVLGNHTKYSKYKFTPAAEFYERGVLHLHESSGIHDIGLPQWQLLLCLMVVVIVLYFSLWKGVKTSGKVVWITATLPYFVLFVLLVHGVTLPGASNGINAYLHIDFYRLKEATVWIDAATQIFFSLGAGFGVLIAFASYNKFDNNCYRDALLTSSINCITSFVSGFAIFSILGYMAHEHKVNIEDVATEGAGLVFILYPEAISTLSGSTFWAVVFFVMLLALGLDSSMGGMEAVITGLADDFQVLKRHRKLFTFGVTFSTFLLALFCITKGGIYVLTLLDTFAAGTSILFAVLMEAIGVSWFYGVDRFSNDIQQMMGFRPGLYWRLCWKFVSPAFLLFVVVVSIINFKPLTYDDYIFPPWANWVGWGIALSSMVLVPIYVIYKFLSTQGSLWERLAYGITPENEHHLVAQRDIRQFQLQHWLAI

For orientation: IC50 means the concentration needed to halve the response being measured. Low readings indicate greater potency, high ones weaker potency. As for `CNCCCN1Cc2ccccc2N(c2ccc(F)c(F)c2)S1(=O)=O` [Example 10, 3-[1-(3,4-difluorophenyl)-2,2-dioxido-1,4-dihydro-3H-2,1,3-benzothiadiazin-3-yl]-N-methylpropan-1-amine hydrochloride], the concentration for half-maximal inhibition (IC50) came to 973 nM.

With `CNCCCN1Cc2ccccc2N(c2ccc(C)cc2)S1(=O)=O` [Example 8, N-methyl-3-[1-(4-methylphenyl)-2,2-dioxido-1,4-dihydro-3H-2,1,3-benzothiadiazin-3-yl]propan-1-amine hydrochloride], the IC50 was found to be 135 nM.

`O=S1(=O)N(CCNC2CC2)Cc2ccccc2N1c1ccccc1F` [Example 12, N-{2-[1-(2-fluorophenyl)-2,2-dioxido-1,4-dihydro-3H-2,1,3-benzothiadiazin-3-yl]ethyl}cyclopropanamine]: the IC50 was 2380 nM.

On to `O=S1(=O)N(CCCNC2CC2)Cc2cc(F)ccc2N1c1ccccc1F` [Example 20, N-{3-[6-fluoro-1-(2-fluorophenyl)-2,2-dioxido-1,4-dihydro-3H-2,1,3-benzothiadiazin-3-yl]propyl}cyclopropanamine], for which the IC50 turned out to be 1750 nM.

Regarding `O=S1(=O)N(CCCCNC2CC2)Cc2ccccc2N1c1ccccc1F` [Example 16, N-{4-[1-(2-fluorophenyl)-2,2-dioxido-1,4-dihydro-3H-2,1,3-benzothiadiazin-3-yl]butyl}cyclopropanamine], the IC50 is 139 nM.

Take `CNCCCN1Cc2ccccc2N(c2cccc(C)c2)S1(=O)=O` [Example 3, N-methyl-3-[1-(3-methylphenyl)-2,2-dioxido-1,4-dihydro-3H-2,1,3-benzothiadiazin-3-yl]propan-1-amine hydrochloride]: the IC50 was 1030 nM.

Molecule `CNCCCN1Cc2ccccc2N(c2cccc(F)c2)S1(=O)=O` [Example 2, 3-[1-(3-fluorophenyl)-2,2-dioxido-1,4-dihydro-3H-2,1,3-benzothiadiazin-3-yl]-N-methylpropan-1-amine hydrochloride] yielded an IC50 of 628 nM.

Molecule `O=S1(=O)N(CCNC2CC2)Cc2cc(F)ccc2N1c1ccccc1F` [Example 18, N-{2-[6-fluoro-1-(2-fluorophenyl)-2,2-dioxido-1,4-dihydro-3H-2,1,3-benzothiadiazin-3-yl]ethyl}cyclopropanamine] displayed an IC50 of 2870 nM.

Take `CNCCCN1Cc2ccccc2N(c2ccc(F)cc2)S1(=O)=O` [Example 7, 3-[1-(4-fluorophenyl)-2,2-dioxido-1,4-dihydro-3H-2,1,3-benzothiadiazin-3-yl]-N-methylpropan-1-amine hydrochloride]: the IC50 came to 492 nM.

As for `CNCCN1Cc2cc(F)ccc2N(c2ccccc2F)S1(=O)=O` [Example 17, 2-[6-fluoro-1-(2-fluorophenyl)-2,2-dioxido-1,4-dihydro-3H-2,1,3-benzothiadiazin-3-yl]-N-methylethanamine], the IC50 was 1410 nM.

As to `CNCCCN1Cc2cc(F)ccc2N(c2ccccc2F)S1(=O)=O` [Example 19, 3-[6-fluoro-1-(2-fluorophenyl)-2,2-dioxido-1,4-dihydro-3H-2,1,3-benzothiadiazin-3-yl]-N-methylpropan-1-amine], 119 nM corresponded to half-maximal inhibition (IC50).

For `CNCCCN1Cc2ccccc2N(c2ccc(F)c(Cl)c2)S1(=O)=O` [Example 6, 3-[1-(3-chloro-4-fluorophenyl)-2,2-dioxido-1,4-dihydro-3H-2,1,3-benzothiadiazin-3-yl]-N-methylpropan-1-amine hydrochloride], the IC50 was 1500 nM.

Molecule `CNCCCN1Cc2ccccc2N(c2ccccc2)S1(=O)=O` [Example 1, 3-(2,2-dioxido-1-phenyl-1,4-dihydro-3H-2,1,3-benzothiadiazin-3-yl)-N-methylpropan-1-amine hydrochloride] had an IC50 of 129 nM.

As for `CNCCCN1Cc2ccccc2N(c2ccc(Cl)cc2)S1(=O)=O` [Example 5, 3-[1-(4-chlorophenyl)-2,2-dioxido-1,4-dihydro-3H-2,1,3-benzothiadiazin-3-yl]-N-methylpropan-1-amine hydrochloride], the IC50 was 908 nM.

`CNCCCCN1Cc2cc(F)ccc2N(c2ccccc2F)S1(=O)=O` [Example 21, 4-[6-fluoro-1-(2-fluorophenyl)-2,2-dioxido-1,4-dihydro-3H-2,1,3-benzothiadiazin-3-yl]-N-methylbutan-1-amine] yielded an IC50 of 30 nM.

In turn, `CNC[C@@H](O)CCN1Cc2cc(F)ccc2N(c2ccccc2F)S1(=O)=O` [Example 23, (2S)-4-[6-fluoro-1-(2-fluorophenyl)-2,2-dioxido-1,4-dihydro-3H-2,1,3-benzothiadiazin-3-yl]-1-(methylamino)butan-2-ol] registered an IC50 of 81 nM.

In the case of `CNCCN1Cc2ccccc2N(c2ccccc2F)S1(=O)=O` [Example 11, 2-[1-(2-fluorophenyl)-2,2-dioxido-1,4-dihydro-3H-2,1,3-benzothiadiazin-3-yl]-N-methylethanamine], inhibition was half-maximal at 200 nM (IC50).

As for `CNCCCCN1Cc2ccccc2N(c2ccccc2F)S1(=O)=O` [Example 15, 4-[1-(2-fluorophenyl)-2,2-dioxido-1,4-dihydro-3H-2,1,3-benzothiadiazin-3-yl]-N-methylbutan-1-amine], the IC50 turned out to be 38 nM.

As to `CNC[C@@H](O)CCN1Cc2ccccc2N(c2ccccc2F)S1(=O)=O` [Example 24, (2S)-4-[1-(2-fluorophenyl)-2,2-dioxido-1,4-dihydro-3H-2,1,3-benzothiadiazin-3-yl]-1-(methylamino)butan-2-ol], the 50% inhibitory concentration (IC50) stood at 95 nM.

In turn, `O=S1(=O)N(CCCCNC2CC2)Cc2cc(F)ccc2N1c1ccccc1F` [Example 22, N-{4-[6-fluoro-1-(2-fluorophenyl)-2,2-dioxido-1,4-dihydro-3H-2,1,3-benzothiadiazin-3-yl]butyl}cyclopropanamine] showed an IC50 of 177 nM.

Consider `CNCCN1c2ccccc2CN(c2ccccc2F)S1(=O)=O` [Example 26, 2-[3-(2-fluorophenyl)-2,2-dioxido-3,4-dihydro-1H-2,1,3-benzothiadiazin-1-yl]-N-methylethanamine], for which the inhibition at 10 µM stood at 36%.

The molecule `CNCCCN1Cc2ccccc2N(c2ccc(OC)cc2)S1(=O)=O` [Example 9, 3-[1-(4-methoxyphenyl)-2,2-dioxido-1,4-dihydro-3H-2,1,3-benzothiadiazin-3-yl]-N-methylpropan-1-amine hydrochloride] yielded a 50% inhibitory concentration (IC50) of 3550 nM.

In turn, `O=S1(=O)N(CCCNC2CC2)Cc2ccccc2N1c1ccccc1F` [Example 14, N-{3-[1-(2-fluorophenyl)-2,2-dioxido-1,4-dihydro-3H-2,1,3-benzothiadiazin-3-yl]propyl}cyclopropanamine] displayed an IC50 of 956 nM.

As for `CNCCCN1Cc2ccccc2N(c2cccc(OC)c2)S1(=O)=O` [Example 4, 3-[1-(3-methoxyphenyl)-2,2-dioxido-1,4-dihydro-3H-2,1,3-benzothiadiazin-3-yl]-N-methylpropan-1-amine hydrochloride], the midpoint of inhibition, the IC50, lay at 792 nM.

For the molecule `CNCCCN1Cc2ccccc2N(c2ccccc2F)S1(=O)=O` [Example 13, 3-[1-(2-fluorophenyl)-2,2-dioxido-1,4-dihydro-3H-2,1,3-benzothiadiazin-3-yl]-N-methylpropan-1-amine], the IC50 stood at 29 nM.

On to `CNCCCN1c2ccccc2CN(c2ccccc2F)S1(=O)=O` [Example 25, 3-[3-(2-fluorophenyl)-2,2-dioxido-3,4-dihydro-1H-2,1,3-benzothiadiazin-1-yl]-N-methylpropan-1-amine], for which the inhibition at 10 µM was found to be 47%.
